Results published in patent US7780966B2, “Artificial invaplex” (The United States of America as represented by the …, priority 2007, dated 2010).

Experiments:
[1] = tested on: IpaB; settings: in vivo
[2] = tested on: IpaC; settings: in vivo

Substance: ovalbumin
- Anti-IpaB Serum IgG (geomean endpoint titer) [1]: 90 ± 0
- Anti-IpaC Serum IgG (geomean endpoint titer) [2]: 90 ± 0
